biological target: human O-GlcNAcase (Homo sapiens (Human), UniProt O60502); experiment: Assay for determination of KI values for inhibition of O-GlcNAcase activity (fluorescence-based hOGA); assay type: biochemical; details: purified human O-GlcNAcase, 4-Methylumbelliferyl N-acetyl-β-D-glucosaminide substrate, pH 7.0, Cheng-Prusoff
Protocol: Assay for Determination of KI Values for Inhibition of O-GlcNAcase Activity
Experimental Procedure for Kinetic Analyses:
Enzymatic reactions are carried out in a reaction containing 50 mM NaH2PO4, 100 mM NaCl and 0.1% BSA (pH 7.0) using 2 mM 4-Methylumbelliferyl N-acetyl-β-D-glucosaminide dihydrate (Sigma M2133) dissolved in ddH2O, as a substrate. The amount of purified human O-GlcNAcase enzyme used in the reaction is 0.7 nM. Test compound of varying concentrations is added to the enzyme prior to initiation of the reaction. The reaction is performed at room temperature in a 96-well plate and is initiated with the addition of substrate. The production of fluorescent product is measured every 60 sec for 45 min with a Tecan Infinite M200 plate-reader with excitation at 355 nm and emission detected at […], with 4-Methylumbelliferone (Sigma M1381) used to produce a standard curve. The slope of product production is determined for each concentration of compound tested and plotted, using standard curve fitting algorithms for sigmoidal dose response curves. The values for a four parameter logistic curve fit of the data are determined.

human O-GlcNAcase, sequence (O60502 whole entry): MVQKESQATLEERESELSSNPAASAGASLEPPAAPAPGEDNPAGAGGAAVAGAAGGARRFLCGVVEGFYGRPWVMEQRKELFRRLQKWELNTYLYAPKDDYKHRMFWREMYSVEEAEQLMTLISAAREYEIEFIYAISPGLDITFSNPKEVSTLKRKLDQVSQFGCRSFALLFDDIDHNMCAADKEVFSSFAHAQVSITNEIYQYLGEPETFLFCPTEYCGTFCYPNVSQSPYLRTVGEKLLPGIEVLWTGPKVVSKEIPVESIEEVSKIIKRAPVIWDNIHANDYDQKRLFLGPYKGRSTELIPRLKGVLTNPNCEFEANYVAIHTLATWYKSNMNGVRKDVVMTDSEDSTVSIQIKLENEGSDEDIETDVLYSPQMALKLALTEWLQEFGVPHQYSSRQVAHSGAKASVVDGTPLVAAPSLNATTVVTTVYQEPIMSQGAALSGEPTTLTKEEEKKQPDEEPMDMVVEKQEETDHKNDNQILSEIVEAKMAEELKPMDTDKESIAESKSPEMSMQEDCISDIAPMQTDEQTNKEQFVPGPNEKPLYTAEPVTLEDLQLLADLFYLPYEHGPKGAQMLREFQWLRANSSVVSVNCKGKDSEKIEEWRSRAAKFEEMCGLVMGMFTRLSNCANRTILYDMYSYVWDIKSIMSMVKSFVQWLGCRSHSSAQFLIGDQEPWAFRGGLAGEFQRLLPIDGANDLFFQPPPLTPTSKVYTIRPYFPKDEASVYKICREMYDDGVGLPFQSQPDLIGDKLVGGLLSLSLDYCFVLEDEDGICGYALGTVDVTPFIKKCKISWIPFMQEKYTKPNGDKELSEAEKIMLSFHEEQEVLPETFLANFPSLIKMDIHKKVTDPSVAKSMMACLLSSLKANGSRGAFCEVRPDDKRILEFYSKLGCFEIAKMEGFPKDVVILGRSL

Ki [pM] | Compound
130 | OC[C@H]1C[C@@H]2OC(N3CCC3)=N[C@@H]2[C@@H](O)[C@@H]1O [Example 18, (3aR,4R,5R,6R,7aS)-2-(azetidin-1-yl)-6-(hydroxymethyl)-3a,4,5,6,7,7a-hexahydrobenzo[d]oxazole-4,5-diol]
484000 | CN(C)C1=N[C@H]2[C@H](O)[C@@H](O)[C@H](CO)C[C@H]2S1 [Example 23, (3aS,4S,5S,6S,7aR)-2-(dimethylamino)-6-(hydroxymethyl)-3a,4,5,6,7,7a-hexahydrobenzo[d]thiazole-4,5-diol]
500 | CN(C)C1=N[C@@H]2[C@@H](O)[C@H](O)[C@@H](CO)C[C@@H]2S1 [Example 22, (3aR,4R,5R,6R,7aS)-2-(dimethylamino)-6-(hydroxymethyl)-3a,4,5,6,7,7a-hexahydrobenzo[d]thiazole-4,5-diol]
600 | CCNC1=N[C@@H]2[C@@H](O)[C@H](O)[C@@H](CO)C[C@@H]2O1 [Example 9, (3aR,4R,5R,6R,7aS)-2-(ethylamino)-6-(hydroxymethyl)-3a,4,5,6,7,7a-hexahydrobenzo[d]oxazole-4,5-diol]
200 | CNC1=N[C@@H]2[C@@H](O)[C@H](O)[C@@H](CO)C[C@@H]2S1 [Example 26, (3aR,4R,5R,6R,7aS)-2-(methylamino)-6-(hydroxymethyl)-3a,4,5,6,7,7a-hexahydrobenzo[d]thiazole-4,5-diol]
2500 | OC[C@H]1C[C@@H]2OC(NCCF)=N[C@@H]2[C@@H](O)[C@@H]1O [Example 32, (3aR,4R,5R,6R,7aS)-2-((2-fluoroethyl)amino)-6-(hydroxymethyl)-3a,4,5,6,7,7a-hexahydrobenzo[d]oxazole-4,5-diol 2,2,2-trifluoroacetate]
